Source: patent US12428433B2, “Fluorine-containing heterocyclic derivatives with macrocyclic structure and use thereof” (ScinnoHub Pharmaceutical Co., Ltd, priority 2019, dated 2025)
Read-outs that look alike come from different tables or passages of the source.

Assays:
Assay type in all cases: cell-based
Ba/F3-LMNA-NTRK1-F589L = test: In-vitro cell viability (CellTiter-Glo), BaF3 cell lines; conditions: Mus musculus, 72 hours
Method: (§1) Hefei Precedo Biomedical Technology Co., Ltd. was commissioned to complete the testing example, and the cell lines used were constructed by this company.
(§2) In-vitro anti-proliferative effects of the compound of the present application on 6 BaF3 cell lines were measured.
(§3) 6 Ba/F3 cell lines were cultured with RPMI 1640 (Biological Industries, Israel)+10% fetal calf serum (Biological Industries, Israel)+1% double antibiotics (Penicillin Streptomycin solution, Coring, USA), and cells were cultured for two generations after resuscitation, to be tested.
(§4) The to-be-tested compound was prepared into 10 mM mother solution with DMSO, and then diluted to 1 mM with DMSO. The solution was diluted by 3 times to prepare into 1.0000 mM, 0.3333 mM, 0.1111 mM, 0.03704 mM, 0.01235 mM, 0.00412 mM, 0.00137 mM, 0.00046 mM, 0.00015 mM, and […], and stored in a 96-well drug plate (Beaver, Suzhou), with 10 concentration gradients in total. Meanwhile, an equal volume of DMSO solvent was used as a negative control.
(§5) The prepared 1,000× compounds of 10 concentration gradients were respectively diluted by 50 times into 20× compounds with complete medium, and stored in a 96-well drug plate (Beaver, Suzhou), with 10 concentration gradients in total. Meanwhile, an equal volume of DMSO solvent was used as a negative control.
(§6) Cell suspension in logarithmic growth phase was inoculated on a 96-well white cell culture plate (Corning 3917, NY, USA), and a volume of each well was 95 μl (about 2000 cells/well).
(§7) 5 μl of 20× to-be-tested compounds were respectively added into the culture plate containing 95 μl of cell suspension above, and mixed evenly, with 2 wells for each concentration gradient. Final concentrations of the to-be-tested compounds were 1.0000 μM, 0.3333 μM, 0.1111 μM, 0.03704 μM, 0.01235 μM, 0.00412 μM, 0.00137 μM, 0.00046 μM, 0.00015 μM, and […] respectively.
(§8) Incubation was carried out in an incubator at 37° C. under 5% CO2 for 72 hours.
(§9) The following steps were carried out according to the instruction of Promega CellTiter-Glo Luminescence Cell Viability Assay Kit (Promega-G7573).
(§10) A corresponding […] value RLU of each well was obtained through reading by SpectraMax Paradigm. Cell viability data was processed by the following formula:
(§11) Cell viability(%)=(RLUDrug−RLUMin)/(RLUMax−RLUMin)*100%. Cell viabilities of compounds of different concentrations were calculated in EXCEL, then cell viability curves were made by GraphPad Prism software, and related parameters were calculated. The parameters comprised a maximum cell viability, a minimum cell viability, and an IC50 value.

Ba/F3-LMNA-NTRK1-G667S = test: as above; conditions: Mus musculus, 72 hours
Method: as §1, §2, §3, §4, §5, §6, §7, §8, §9, §10, §11

Ba/F3-TEL-NTRK2 = test: as above; conditions: Mus musculus, 72 hours
Method: as §1, §2, §3, §4, §5, §6, §7, §8, §9, §10, §11

Ba/F3-LMNA-NTRK1 = test: as above; conditions: Mus musculus, 72 hours
Method: as §1, §2, §3, §4, §5, §6, §7, §8, §9, §10, §11

Ba/F3-TEL-NTRK3 = test: as above; conditions: Mus musculus, 72 hours
Method: as §1, §2, §3, §4, §5, §6, §7, §8, §9, §10, §11

Ba/F3-LMNA-NTRK1-V573I = test: as above; conditions: Mus musculus, 72 hours
Method: as §1, §2, §3, §4, §5, §6, §7, §8, §9, §10, §11

Ba/F3 EVT6-NTRK3-G623R = test: In-vitro cell viability (CTG), NTRK mutant cells; conditions: for IC50: Mus musculus, read-out: Ba/F3 EVT6-NTRK3-G623R IC50
Method: (§12) Hefei Precedo Biomedical Technology Co., Ltd. was commissioned to complete the testing example, and NTRK mutant cells used were constructed by this company.
(§13) Inhibitory effects of the compound of the present application on growth of three NTRK mutant cells (Ba/F3 LMNA-NTRK1-G667C, Ba/F3 EVT6-NTRK3-G623R and Ba/F3 LMNA-NTRK1-G595R) were measured.
(§14) Cells in logarithmic growth phase were collected and counted by a blood platelet counter, a cell concentration was adjusted to 3 to 6×10^4 cell/mL, 90 μL of cell suspension was added into a 96-well plate, and cells in the 96-well plate were cultured at 37° C. under 5% CO2 and 95% humidity overnight.
(§15) The to-be-tested compound was prepared into a 10 times drug solution in a medium containing 1% DMSO, with […] and the drug solution was diluted by 3 times in sequence to obtain drug solutions with 9 concentrations in total. […] 10 μL of prepared drug solution was added into each well of the 96-well plate in which the cells were inoculated. Then, 90 μL of medium containing 1% DMSO was added to obtain a drug solution with a highest concentration of 1 μM, and the drug solution was diluted by 3 times in sequence to obtain drug solutions with 9 concentrations in total. A final concentration of DMSO in each well was 0.1%, and three multiple wells were provided for the drug of each concentration. The cells in the 96-well plate in which the drug has been added were cultured at 37° C. under 5% CO2 and 95% humidity for 72 hours, and then subjected to CTG analysis.
(§16) An equal volume of CTG solution was added into each well, the 96-well plate was placed at room temperature for 20 minutes to stabilize a luminescence signal, and a luminescence value was read.
(§17) Data was analyzed by GraphPad Prism 7.0 software, and fitted by nonlinear S-curve regression to obtain a dose-effect curve, from which an IC50 value was calculated. Cell survival rate (%)=(Lum to-be-tested drug−Lum medium control)/(Lum cell control−Lum medium control)×100%.

Ba/F3 LMNA-NTRK1-G595R = test: In-vitro cell viability (CTG), NTRK mutant cells; conditions: Mus musculus, read-out: Ba/F3 LMNA-NTRK1-G595R IC50
Method: as §12, §13, §14, §15, §16, §17

Ba/F3 LMNA-NTRK1-G667C = test: In-vitro cell viability (CTG), NTRK mutant cells; conditions: Mus musculus, read-out: Ba/F3 LMNA-NTRK1-G667C IC50
Method: as §12, §13, §14, §15, §16, §17

Row | IC50 (Ba/F3-LMNA-NTRK1-F589L) | IC50 (Ba/F3-LMNA-NTRK1-G667S) | IC50 (Ba/F3-TEL-NTRK2) | IC50 (Ba/F3-LMNA-NTRK1) | IC50 (Ba/F3-TEL-NTRK3) | IC50 (Ba/F3-LMNA-NTRK1-V573I) | IC50 (Ba/F3 EVT6-NTRK3-G623R; BaF3, 72 hours, CTG) | IC50 (Ba/F3 LMNA-NTRK1-G595R; BaF3, 72 hours, CTG) | IC50 (Ba/F3 LMNA-NTRK1-G667C; BaF3, 72 hours, CTG) | Structure (SMILES) | IC50 (Ba/F3 EVT6-NTRK3-G623R; BaF3, 72 h) | IC50 (Ba/F3 LMNA-NTRK1-G595R; BaF3, 72 h) | IC50 (Ba/F3 LMNA-NTRK1-G667C; BaF3, 72 h) | inhibitory activity higher than that of the positive control compound 2 (Ba/F3 EVT6-NTRK3-G623R; Ba/F3 EVT6-NTRK3-G623R, data of Table 2)
1 | 6.6 nM | 2.7 nM | 0.9 nM | 0.5 nM | 0.9 nM | 0.2 nM | 18 nM | 1.8 nM | 1.8 nM | O=C1N[C@H]2C[C@H](C2)Oc2ncc(F)cc2[C@H]2CCCN2c2ccn3ncc1c3n2 (stereo in doubt) [Positive control 1, reference compound] | – | – | – | –
2 | 1.2 nM | 8.4 nM | 3.4 nM | 1.6 nM | 5 nM | 1.1 nM | 25 nM | 4.5 nM | 3.2 nM | C[C@H]1Nc2nc3c(cnn3cc2F)C(=O)N[C@H]2C[C@H](C2)Oc2ncc(F)cc21 [Example 3, (3^1S,3^3S,6^3E,6^4E,8R)-1^5,6^6-difluoro-8-methyl-2-oxo-4,7-diaza-6(3,5)-pyrazolo[1,5-a]pyrimidine-1(2,3)-pyridine-3(1,3)-cyclobutylcyclooctane-5-one] | – | – | – | 4 times
3 | 4.5 nM | 19.9 nM | 7.3 nM | 4.1 nM | 9.8 nM | 2.3 nM | 107 nM | 13 nM | 6.5 nM | C[C@H]1Nc2ccn3ncc(c3n2)C(=O)N[C@H]2C[C@H](C2)Oc2ncc(F)cc21 [Positive control 2, reference compound] | – | – | – | –

Row | Structure (SMILES) | IC50 (Ba/F3-LMNA-NTRK1-F589L) | IC50 (Ba/F3-LMNA-NTRK1-G667S) | IC50 (Ba/F3-TEL-NTRK2) | IC50 (Ba/F3-LMNA-NTRK1) | IC50 (Ba/F3-TEL-NTRK3) | IC50 (Ba/F3-LMNA-NTRK1-V573I) | IC50 (Ba/F3 EVT6-NTRK3-G623R; BaF3, 72 hours, CTG) | IC50 (Ba/F3 LMNA-NTRK1-G595R; BaF3, 72 hours, CTG) | IC50 (Ba/F3 LMNA-NTRK1-G667C; BaF3, 72 hours, CTG) | IC50 (Ba/F3 EVT6-NTRK3-G623R; BaF3, 72 h) | IC50 (Ba/F3 LMNA-NTRK1-G595R; BaF3, 72 h) | IC50 (Ba/F3 LMNA-NTRK1-G667C; BaF3, 72 h) | inhibitory activity higher than that of the positive control compound 2 (Ba/F3 EVT6-NTRK3-G623R; Ba/F3 EVT6-NTRK3-G623R, data of Table 2)
4 | O=C1N[C@H]2C[C@H](C2)Oc2ncc(F)cc2[C@H]2CCCN2c2nc3c1cnn3cc2F [Example 2, ((1^3E,1^4E,2^2R,5^1S,5^3S)-1^6,3^5-difluoro-4-oxa-6-aza-1(5,3)-pyrazolo[1,5-a]pyrimidine-3(3,2)-pyridine-2(1,2)-pyrrolidine-5(1,3)-cyclobutancycloheptan-7-one] | 2.4 nM | 3.4 nM | 1.6 nM | 0.7 nM | 1.7 nM | 0.3 nM | – | – | – | 14 nM | 2.3 nM | 3 nM | –
